Results reported in patent publication US6410546B1, “Use of MKC-442 in combination with other antiviral agents” (Triangle Pharmaceuticals, Inc., priority 1997, dated 2002).

Key:
HIV [1] = details: as reported in the prior art; cited from earlier work
[2] = system: wild-type (drug-sensitive) and several mutant strains of HIV; assay: Cell culture assay systems, inhibition of HIV replication (alone and in drug combinations); type: cell-based
Text: MKC-442, although a nucleoside analogue, functions as a non-nucleoside reverse transcriptase inhibitor. It is considered an allosteric inhibitor because it appears to exert its activity by binding to an “allosteric position”, i.e., one other than the binding site, of the enzyme.

[3] = Phase I study, single escalating doses: pharmacokinetics and tolerance; type: in vivo, HIV-infected volunteers
Text: A Phase I study evaluated the pharmacokinetics and tolerance of single escalating doses of MKC-442 in HIV-infected volunteers.

in vivo = assay: in vivo; parameters: species or system rats; details: rat
Text: In rats, for example, the concentration of MKC-442 in the brain was 100% of that seen in the plasma.

HIV [4] = assay: Phase I/II double-blind, placebo controlled trial of repeated multiple oral doses
Experimental: Preliminary data from a Phase I/II double-blind, placebo controlled trial designed to evaluate the safety and efficacy of repeated multiple oral doses of MKC-442 in HIV-infected patients has now also been evaluated. A total of 49 patients were treated with MKC-442 for up to two months. Doses ranging from 100 mg to 1000 mg twice a day were given to groups of six to eight patients at each dosage level.

SMILES	activity against HIV (HIV [1])	toxicity (HIV [1])	combination effect on HIV replication ([2]; three drug combination with AZT and saquinavir)	combination effect on HIV replication ([2]; two drug combination with AZT)	combination effect on HIV replication ([2]; two drug combination with DDI)	potency compared with nevirapine ([2]; wild-type and mutant strains of HIV)	ability to inhibit HIV replication ([2]; wild-type and mutant strains resistant to established non-nucleoside reverse transcriptase inhibitors)	concentrations of the drug in the plasma ([3]; groups receiving higher doses, compared with levels required to suppress 90% of the virus in culture)	tolerance ([3]; single escalating doses, HIV-infected volunteers)	Kp (in vivo)	penetration into the central nervous system (in vivo)	oral bioavailability (in vivo; po)	viral load reduction (average) (HIV [4]; 705 mg and 1000 mg twice a day, all patients, after one week) [%]	tolerability (HIV [4]; over 308 patient-weeks of drug exposure, 100 mg to 1000 mg twice a day)
Nc1nc(=O)n([C@@H]2CS[C@H](CO)O2)cc1F (relative stereo) [FTC, cis-2-hydroxymethyl-5-(5-fluorocytosin-1-yl)-1,3-oxathiolane]	potent HIV activity	–	–	–	–	–	–	–	–	–	–	–	–	–
Nc1ccn(C2CSC(CO)O2)c(=O)n1 (racemic) [BCH-189, 2-hydroxymethyl-5-(cytosin-1-yl)-1,3-oxathiolane]	approximately the same activity against HIV as AZT	little toxicity	–	–	–	–	–	–	–	–	–	–	–	–
CCOCn1c(Cc2ccccc2)c(C(C)C)c(=O)[nH]c1=O [MKC-442, 6-benzyl-1-(ethoxymethyl)-5-isopropyluracil]	–	–	synergistic inhibition	synergistic inhibition	synergistic inhibition	greater potency than nevirapine	retained much of its ability to inhibit HIV replication	mich higher than the levels required to suppress 90% of the virus in culture	generally well tolerated	1	excellent	good	96	well tolerated
